The results in this text go back to PubChem BioAssay (NCI).

Some test systems named below: HOP-92 NSCLC; M14 melanoma; SNB-19 CNS; HT29 colon; HL-60(TB) leukemia; LOX IMVI melanoma; SNB-75 CNS; CCRF-CEM leukemia; KM12 colon; NCI-H460 lung.
Common to all, as to test: DTP human tumour cell line panel, 48 h

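Cultured in 96-well plates, cells were exposed to test compound for 48 hours across five concentrations. TGI marks complete inhibition of growth.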 *1 amine or outer side, *2 acyl side, *3 side chain or, on linkers, in order; H or OH if unused. Where a SMILES comes first, the peptide text is derived from it. Bridges are numbered along the chain shown (N, C = ends). [ ]: non-standard residue; d: D form. ξ: configuration not given here. X35 = CC[C@H](C)[C@@H](N[*:1])[C@@H](O)CC(=O)O[C@H](C(=O)[C@H](C)C(=O)[*:2])C(C)C; NMeY = CN[C@@H](Cc1ccc(O)cc1)C(=O)O; dNMeL = CN[C@H](CC(C)C)C(=O)O; ξΔPro = O=C(O)C1C=CCN1

Turning to `COC(=O)c1cc(C)ccc1/C=C1\Cc2c(C)cc(C)cc2C1=O`, the TGI in the test on HOP-92 NSCLC is 25.2 µM; in the test with M14 melanoma it was more than 100 µM; in the test with SNB-19 CNS it was 52.8 µM; in the test on HT29 colon, more than 100 µM; in the test on HL-60(TB) leukemia, more than 100 µM; in the test with LOX IMVI melanoma, more than 100 µM. Besides, the concentration for total growth inhibition (TGI) is 35.5 µM in the test with SNB-75 CNS, more than 100 µM in the test on CCRF-CEM leukemia, more than 100 µM in the test with KM12 colon and more than 100 µM in the test on NCI-H460 lung.

For the compound `COC(=O)c1cc(C)ccc1C1CN=NC12Cc1c(C)cc(C)cc1C2=O` (stereo not given), the total growth inhibition concentration (TGI) in the test on HOP-92 NSCLC was 40.9 µM; in the test with M14 melanoma, 41.9 µM; in the test on SNB-19 CNS, more than 100 µM; with HT29 colon, 45.8 µM; with HL-60(TB) leukemia it was 29.3 µM; with LOX IMVI melanoma, 30.3 µM. Besides, the total growth inhibition concentration (TGI) with SNB-75 CNS came out at 66.8 µM; in the test on CCRF-CEM leukemia, 86.5 µM; with KM12 colon, 39.1 µM; in the test with NCI-H460 lung, 42.7 µM.

Take `Cn1c(=O)n(CC2CS2)c2ccccc21` (stereo not given): the TGI with HOP-92 NSCLC, in the test on M14 melanoma, in the test on SNB-19 CNS, with HT29 colon, in the test on HL-60(TB) leukemia and in the test on LOX IMVI melanoma was more than 100 µM in each case. Also, the concentration for total growth inhibition (TGI) in the test on SNB-75 CNS, in the test with CCRF-CEM leukemia, in the test with KM12 colon and in the test with NCI-H460 lung was more than 100 µM in each case.

As for `COc1cc2c(c(OC)c1)C(=O)O[C@H](C)CCCC/C=C/C2`, the TGI was 25.7 µM with HOP-92 NSCLC; more than 32.2 µM in the test on M14 melanoma; more than 32.5 µM with SNB-19 CNS; more than 71.8 µM in the test with HT29 colon; 4.45 µM in the test with HL-60(TB) leukemia; 23 µM with LOX IMVI melanoma. Besides, the TGI was more than 32.8 µM in the test with SNB-75 CNS, more than 100 µM with CCRF-CEM leukemia, more than 35.2 µM in the test with KM12 colon and more than 32.6 µM in the test with NCI-H460 lung.

For the compound `O=[N+]([O-])c1cc(F)ccc1Sc1ccccc1`, the total growth inhibition concentration (TGI) with HOP-92 NSCLC, in the test with M14 melanoma, in the test on SNB-19 CNS, in the test with HT29 colon, in the test with HL-60(TB) leukemia and with LOX IMVI melanoma was more than 10 µM throughout. Further, the TGI with SNB-75 CNS, in the test on CCRF-CEM leukemia, in the test on KM12 colon and in the test with NCI-H460 lung was more than 10 µM each time.

Regarding `COc1cc(CNC(=S)CCCCCCCCCCC(C)C)ccc1O`, the TGI in the test on HOP-92 NSCLC was 68 µM; in the test with M14 melanoma, more than 100 µM; in the test on SNB-19 CNS, more than 100 µM; in the test with HT29 colon it was more than 100 µM; in the test with HL-60(TB) leukemia, 70.2 µM; with LOX IMVI melanoma it was more than 100 µM. The TGI in the test on SNB-75 CNS is more than 100 µM; in the test on CCRF-CEM leukemia, more than 100 µM; in the test with KM12 colon, 94.4 µM; with NCI-H460 lung it was more than 100 µM.

With `COc1ccc(OC)c(C[P+](c2ccccc2)(c2ccccc2)c2ccccc2)c1`, the TGI with HOP-92 NSCLC was 4.39 µM; in the test on M14 melanoma it was 18.3 µM; in the test on SNB-19 CNS, more than 75 µM; with HT29 colon, 11.8 µM; with HL-60(TB) leukemia, 3.29 µM; in the test with LOX IMVI melanoma, 13.2 µM. For the same compound, the TGI was 22.2 µM in the test with SNB-75 CNS, more than 26.8 µM in the test on CCRF-CEM leukemia, 14.1 µM in the test on KM12 colon and more than 100 µM in the test on NCI-H460 lung.

As for `CC[C@H](C)[C@H]1NC(=O)[C@@H](NC(=O)[C@@H](CC(C)C)N(C)C(=O)C2C=CCN2)[C@@H](C)OC(=O)[C@H](Cc2ccc(OC)cc2)N(C)C(=O)[C@@H]2CCCN2C(=O)[C@H](CC(C)C)NC(=O)[C@@H](C)C(=O)[C@H](C(C)C)OC(=O)C[C@@H]1O` (stereo not given in full) (H-[ξΔPro][dNMeL]T[X35]LP[NMeY](Me); ester 3-C), the TGI with HOP-92 NSCLC is 0.171 µM; in the test on M14 melanoma it was 0.111 µM; in the test on SNB-19 CNS it was 0.00706 µM; in the test on HT29 colon it was less than 0.005 µM; in the test on HL-60(TB) leukemia, more than 50 µM; with LOX IMVI melanoma, 0.0161 µM. Also, the TGI in the test on SNB-75 CNS is 0.0107 µM; in the test with CCRF-CEM leukemia, more than 50 µM; in the test with KM12 colon it was 0.447 µM; in the test with NCI-H460 lung, 0.114 µM.

On to `Cc1cn(CCOCCOC(=O)NC(CCCNC(N)=O)C(=O)O)c(=O)[nH]c1=O` (stereo not given), for which the TGI in the test with HOP-92 NSCLC, in the test with M14 melanoma, with SNB-19 CNS, in the test with HT29 colon, in the test with HL-60(TB) leukemia and in the test on LOX IMVI melanoma was more than 100 µM throughout. Also, the TGI with SNB-75 CNS, with CCRF-CEM leukemia, in the test with KM12 colon and in the test on NCI-H460 lung was more than 100 µM throughout.

Turning to `COC(=O)C1CC23C=CCN4CC(C2C)C2(c5ccccc5NC12)C43` (stereo not given), the TGI in the test with HOP-92 NSCLC, in the test on M14 melanoma, with SNB-19 CNS, in the test with HT29 colon, with HL-60(TB) leukemia and with LOX IMVI melanoma was more than 100 µM throughout. Moreover, the TGI in the test with SNB-75 CNS, in the test on CCRF-CEM leukemia, in the test with KM12 colon and in the test on NCI-H460 lung was more than 100 µM each time.

For the compound `Clc1nc2c(C#Cc3ccccc3)ncnc2n1C1CCCCO1` (stereo not given), the TGI amounted to 34 µM with HOP-92 NSCLC; 25.9 µM in the test on M14 melanoma; 37.3 µM in the test on SNB-19 CNS; 27.6 µM in the test on HT29 colon; 33.7 µM with HL-60(TB) leukemia; 30.7 µM in the test on LOX IMVI melanoma. The TGI with SNB-75 CNS is more than 100 µM; in the test on CCRF-CEM leukemia, more than 100 µM; in the test with KM12 colon, 35.1 µM; in the test with NCI-H460 lung it was 39.6 µM.

As to `NNC(=O)Cn1ccnn1`, the TGI in the test on HOP-92 NSCLC, in the test on M14 melanoma, in the test on SNB-19 CNS, in the test on HT29 colon, in the test with HL-60(TB) leukemia and in the test with LOX IMVI melanoma was more than 100 µM in each case. Moreover, the TGI in the test on SNB-75 CNS, in the test on CCRF-CEM leukemia, in the test on KM12 colon and with NCI-H460 lung was more than 100 µM each time.

In the case of `O=C(O)COc1cc(-c2ccccc2)nc2ccccc12`, the concentration for total growth inhibition (TGI) in the test on HOP-92 NSCLC, with M14 melanoma, in the test with SNB-19 CNS, in the test on HT29 colon, with HL-60(TB) leukemia and with LOX IMVI melanoma was more than 100 µM throughout. Also, the concentration for total growth inhibition (TGI) with SNB-75 CNS, in the test on CCRF-CEM leukemia, in the test with KM12 colon and with NCI-H460 lung was more than 100 µM in each case.

On to `Cc1nc2cccc(F)c2c(=O)n1-c1nnc(C(F)(F)F)s1`, for which the TGI in the test on HOP-92 NSCLC, in the test with M14 melanoma, in the test on SNB-19 CNS, with HT29 colon, with HL-60(TB) leukemia and with LOX IMVI melanoma was more than 10 µM in each case. Further, the TGI in the test on SNB-75 CNS, with CCRF-CEM leukemia, in the test with KM12 colon and in the test on NCI-H460 lung was more than 10 µM throughout.

On to `Nc1ccc2c(c1)NC(=O)[C@@H]1CCCN1C2=O`, for which the TGI with HOP-92 NSCLC, in the test with M14 melanoma, in the test with SNB-19 CNS, in the test on HT29 colon, in the test on HL-60(TB) leukemia and in the test on LOX IMVI melanoma was more than 100 µM each time. Further, the TGI with SNB-75 CNS, in the test with CCRF-CEM leukemia, with KM12 colon and in the test on NCI-H460 lung was more than 100 µM each time.

Consider `CC(C)(C)C(=O)N1CCN(C=O)C1=S`, for which the TGI in the test on HOP-92 NSCLC is 52.9 µM; in the test with M14 melanoma, more than 100 µM; in the test on SNB-19 CNS, more than 100 µM; in the test on HT29 colon it was more than 100 µM; with HL-60(TB) leukemia, more than 100 µM; in the test with LOX IMVI melanoma it was more than 100 µM. Further, the TGI in the test on SNB-75 CNS is 90.6 µM; with CCRF-CEM leukemia it was 97.6 µM; with KM12 colon, more than 100 µM; with NCI-H460 lung it was more than 100 µM.

`COC(=O)[C@](C)(Cc1ccccc1)NC(=O)[C@@H](C)N1[C@@H](c2ccccc2)COC1(C)C`: the TGI with HOP-92 NSCLC, in the test with M14 melanoma, in the test on SNB-19 CNS, with HT29 colon, in the test on HL-60(TB) leukemia and with LOX IMVI melanoma was more than 100 µM each time. The TGI in the test with SNB-75 CNS is 75.8 µM; with CCRF-CEM leukemia, more than 100 µM; in the test with KM12 colon it was more than 100 µM; with NCI-H460 lung it was more than 100 µM.

With `COC(=O)/C=C1\C(=O)C=C2[C@@H]3C[C@H]4C[C@H](CC[C@@]4(C)N21)C3(C)NC(C)=O` (stereo not given in full), the TGI in the test with HOP-92 NSCLC was 47.5 µM; in the test with M14 melanoma, 26.4 µM; in the test on SNB-19 CNS it was more than 56.7 µM; in the test on HT29 colon, 28.2 µM; with HL-60(TB) leukemia it was more than 100 µM; in the test with LOX IMVI melanoma, more than 100 µM. Also, the TGI was 27.4 µM in the test with SNB-75 CNS, 34.7 µM with CCRF-CEM leukemia, 33.2 µM in the test on KM12 colon and more than 100 µM in the test on NCI-H460 lung.

In the case of `CCN(CC)C1Oc2cc3c(cc2C(c2cc(OC)c(OC)c(OC)c2)C1C)OCO3` (stereo not given), the TGI was 96.5 µM in the test on HOP-92 NSCLC; more than 37.9 µM in the test with M14 melanoma; more than 53 µM in the test on SNB-19 CNS; 9.95 µM in the test on HT29 colon; 0.932 µM with HL-60(TB) leukemia; more than 48.8 µM with LOX IMVI melanoma. Moreover, the concentration for total growth inhibition (TGI) with SNB-75 CNS is more than 69.9 µM; with CCRF-CEM leukemia, more than 22.9 µM; in the test with KM12 colon it was 30.7 µM; with NCI-H460 lung, 22.5 µM.

As for `CN(C)CCNC(=O)c1cc(NC(=O)c2cc(NC(=O)CC/C=C3/[C@@H]4CC[C@H]3N=N4)cn2C)cn1C`, the concentration for total growth inhibition (TGI) with HOP-92 NSCLC, with M14 melanoma, in the test with SNB-19 CNS, with HT29 colon, in the test on HL-60(TB) leukemia and with LOX IMVI melanoma was more than 100 µM in each case. The concentration for total growth inhibition (TGI) in the test on SNB-75 CNS, in the test with CCRF-CEM leukemia, with KM12 colon and in the test on NCI-H460 lung was more than 100 µM in each case.

Broadly, the TGI is the concentration giving total growth inhibition. The low end stands for more potent growth arrest, the high end for less potent growth arrest.
